This note sets out measurements from ChEMBL document CHEMBL1201862, “PubChem BioAssay data set” (2004).

Series [1] addresses T1, Sentrin-specific protease 7 (Homo sapiens, UniProt Q9BQF6).
T1 sequence (Q9BQF6 whole entry): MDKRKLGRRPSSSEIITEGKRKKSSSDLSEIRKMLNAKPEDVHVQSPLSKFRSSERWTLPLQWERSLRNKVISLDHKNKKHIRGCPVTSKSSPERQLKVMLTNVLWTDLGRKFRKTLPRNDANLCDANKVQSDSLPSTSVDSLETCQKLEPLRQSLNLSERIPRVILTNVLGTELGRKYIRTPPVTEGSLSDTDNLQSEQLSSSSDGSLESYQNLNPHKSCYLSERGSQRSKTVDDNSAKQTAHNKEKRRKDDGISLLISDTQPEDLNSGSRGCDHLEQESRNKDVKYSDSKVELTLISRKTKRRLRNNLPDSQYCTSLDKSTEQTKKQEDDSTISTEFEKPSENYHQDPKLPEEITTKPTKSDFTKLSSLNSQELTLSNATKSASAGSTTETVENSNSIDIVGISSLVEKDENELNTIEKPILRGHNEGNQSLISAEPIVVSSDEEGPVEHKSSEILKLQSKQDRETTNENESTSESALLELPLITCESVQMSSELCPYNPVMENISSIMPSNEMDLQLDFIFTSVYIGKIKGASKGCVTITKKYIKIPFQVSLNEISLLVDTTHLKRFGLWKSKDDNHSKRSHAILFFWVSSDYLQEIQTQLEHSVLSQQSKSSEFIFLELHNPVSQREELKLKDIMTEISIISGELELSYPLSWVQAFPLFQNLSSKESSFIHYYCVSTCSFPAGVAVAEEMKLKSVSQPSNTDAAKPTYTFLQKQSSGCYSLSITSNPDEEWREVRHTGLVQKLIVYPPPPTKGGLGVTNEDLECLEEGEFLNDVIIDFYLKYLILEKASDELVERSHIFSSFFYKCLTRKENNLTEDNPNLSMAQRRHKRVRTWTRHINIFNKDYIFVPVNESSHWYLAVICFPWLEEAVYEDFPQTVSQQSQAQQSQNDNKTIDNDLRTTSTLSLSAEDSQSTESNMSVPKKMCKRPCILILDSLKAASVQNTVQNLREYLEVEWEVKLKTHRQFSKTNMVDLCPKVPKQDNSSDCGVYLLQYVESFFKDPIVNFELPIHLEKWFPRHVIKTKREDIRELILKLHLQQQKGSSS
Format: functional.

In series [2] the target is T2, Sentrin-specific protease 6 (Homo sapiens, UniProt Q9GZR1).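 Also: Luminescence-based dose-response confirmatory assay of SENP6 inhibition, following up an ultra-high-throughput screen.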
T2 sequence (Q9GZR1 whole entry): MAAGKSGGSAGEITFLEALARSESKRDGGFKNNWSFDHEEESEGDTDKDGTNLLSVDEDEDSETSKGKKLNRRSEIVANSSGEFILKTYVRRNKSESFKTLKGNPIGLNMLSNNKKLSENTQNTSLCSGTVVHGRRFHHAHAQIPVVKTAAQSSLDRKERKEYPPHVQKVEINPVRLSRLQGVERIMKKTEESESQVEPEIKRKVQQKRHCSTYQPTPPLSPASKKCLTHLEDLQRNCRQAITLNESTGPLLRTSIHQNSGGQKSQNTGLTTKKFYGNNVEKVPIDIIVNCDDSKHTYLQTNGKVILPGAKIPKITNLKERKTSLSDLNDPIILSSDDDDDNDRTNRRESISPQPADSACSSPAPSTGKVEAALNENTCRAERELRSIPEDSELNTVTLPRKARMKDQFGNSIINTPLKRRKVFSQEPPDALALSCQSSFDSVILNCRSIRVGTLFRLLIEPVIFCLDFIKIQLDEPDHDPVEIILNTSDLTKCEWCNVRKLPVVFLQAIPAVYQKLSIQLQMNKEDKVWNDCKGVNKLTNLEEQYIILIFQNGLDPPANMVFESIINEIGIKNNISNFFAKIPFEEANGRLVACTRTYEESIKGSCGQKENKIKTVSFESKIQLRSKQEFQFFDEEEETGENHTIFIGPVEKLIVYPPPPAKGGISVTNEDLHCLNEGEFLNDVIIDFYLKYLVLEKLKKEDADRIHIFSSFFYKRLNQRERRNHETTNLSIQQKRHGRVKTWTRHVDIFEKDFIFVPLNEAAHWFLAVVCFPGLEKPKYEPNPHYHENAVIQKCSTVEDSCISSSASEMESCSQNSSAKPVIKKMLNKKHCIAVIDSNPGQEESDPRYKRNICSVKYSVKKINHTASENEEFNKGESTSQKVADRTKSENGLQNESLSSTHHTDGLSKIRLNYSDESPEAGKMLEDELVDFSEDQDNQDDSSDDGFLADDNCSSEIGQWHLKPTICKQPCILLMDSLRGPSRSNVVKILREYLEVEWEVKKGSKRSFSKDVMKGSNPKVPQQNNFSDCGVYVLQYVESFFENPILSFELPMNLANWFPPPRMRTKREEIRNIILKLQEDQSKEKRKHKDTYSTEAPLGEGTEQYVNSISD
Type of series: functional.

Another series deals with T3, Caspase-3 (Homo sapiens, UniProt P42574).
T3 sequence (P42574 whole entry): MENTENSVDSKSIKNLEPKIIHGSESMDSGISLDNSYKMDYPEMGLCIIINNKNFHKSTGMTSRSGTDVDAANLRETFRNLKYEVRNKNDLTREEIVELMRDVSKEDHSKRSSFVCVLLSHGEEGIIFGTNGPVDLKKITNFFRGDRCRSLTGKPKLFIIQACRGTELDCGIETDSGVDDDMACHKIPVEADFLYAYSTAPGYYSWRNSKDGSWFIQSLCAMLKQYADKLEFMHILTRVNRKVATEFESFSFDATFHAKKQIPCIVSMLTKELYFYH
Type of series: functional.

In series [3] the target is T4, Sentrin-specific protease 8 (Homo sapiens, UniProt Q96LD8).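 Also: luminescence read-out of SENP8 inhibition, dose-response confirmation following an ultra-high-throughput screen.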
T4 sequence (Q96LD8 whole entry): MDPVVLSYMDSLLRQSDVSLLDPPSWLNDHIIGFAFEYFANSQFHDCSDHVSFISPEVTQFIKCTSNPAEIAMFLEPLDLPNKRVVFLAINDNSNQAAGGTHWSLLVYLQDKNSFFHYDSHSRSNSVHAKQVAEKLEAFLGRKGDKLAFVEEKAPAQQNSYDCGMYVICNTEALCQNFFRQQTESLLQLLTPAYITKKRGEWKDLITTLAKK
Format: functional.

Series [4] in a line: microbe, parasite or virus in culture. Type of series: functional. Conditions: Mycobacterium tuberculosis.
Series [5] has as its target T5, Endoribonuclease toxin MazF (Escherichia coli K-12, UniProt P0AE70).
T5 sequence (P0AE70 whole entry): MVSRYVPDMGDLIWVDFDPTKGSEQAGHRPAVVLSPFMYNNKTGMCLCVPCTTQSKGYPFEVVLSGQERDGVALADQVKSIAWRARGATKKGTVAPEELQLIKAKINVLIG
In words: fluorescent RNA oligo signal without MazF, dose response, counter-screen for MazEF activator project, biochemical, fluorescence, single-stranded RNase substrate (AID 588502). Type of series: functional. Background: A counterscreen serves to expose hits that act by an unwanted route or on another target.

The target of series [6] is T5, Endoribonuclease toxin MazF. Nature of the series: MazF toxin RNase activators, dose response, biochemical, fluorescence, single-stranded RNA substrate, uHTS hits (AID 588481). Type of series: functional.
For a further series, the target named is Cytochrome P450 2D6 (Homo sapiens, UniProt P10635).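 Also: CYP2D6 member of a cytochrome P450 panel assay.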
A further series deals with T6, Protein RecA (Mycobacterium tuberculosis, UniProt P9WHJ3).
T6 sequence (P9WHJ3 whole entry): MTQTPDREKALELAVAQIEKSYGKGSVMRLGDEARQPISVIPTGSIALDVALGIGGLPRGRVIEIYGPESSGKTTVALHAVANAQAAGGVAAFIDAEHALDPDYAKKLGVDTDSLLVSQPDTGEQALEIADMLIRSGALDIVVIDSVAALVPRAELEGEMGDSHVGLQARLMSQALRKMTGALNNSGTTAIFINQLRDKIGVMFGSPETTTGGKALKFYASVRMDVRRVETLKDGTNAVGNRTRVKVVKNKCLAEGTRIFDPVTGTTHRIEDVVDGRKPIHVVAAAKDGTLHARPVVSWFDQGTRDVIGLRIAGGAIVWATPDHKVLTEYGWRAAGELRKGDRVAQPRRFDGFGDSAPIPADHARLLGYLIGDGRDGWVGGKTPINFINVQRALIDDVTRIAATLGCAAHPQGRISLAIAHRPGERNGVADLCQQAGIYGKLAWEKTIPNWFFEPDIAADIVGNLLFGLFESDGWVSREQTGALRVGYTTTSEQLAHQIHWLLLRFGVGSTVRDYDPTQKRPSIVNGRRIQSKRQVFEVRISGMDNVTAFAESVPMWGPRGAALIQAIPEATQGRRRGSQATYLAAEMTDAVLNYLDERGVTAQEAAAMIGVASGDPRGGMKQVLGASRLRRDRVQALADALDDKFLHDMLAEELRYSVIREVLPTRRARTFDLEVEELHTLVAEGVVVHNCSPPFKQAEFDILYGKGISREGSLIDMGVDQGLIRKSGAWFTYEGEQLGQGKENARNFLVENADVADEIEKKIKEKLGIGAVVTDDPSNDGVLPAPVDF
In words: Fluorescence Cell-Free Homogeneous Dose Retest to Identify Inhibitors of RecA-Intein Splicing Activity. [Related pubchem assays (depositor defined):AID2097, AID2223, AID489010, AID492950]. Type of series: functional.

In another series the target is Cytochrome P450 2C9 (Homo sapiens, UniProt P11712).
The target of series [7] is T7, Replicative DNA helicase DnaB (Mycobacterium tuberculosis, UniProt P9WMR3).
T7 sequence (P9WMR3 whole entry): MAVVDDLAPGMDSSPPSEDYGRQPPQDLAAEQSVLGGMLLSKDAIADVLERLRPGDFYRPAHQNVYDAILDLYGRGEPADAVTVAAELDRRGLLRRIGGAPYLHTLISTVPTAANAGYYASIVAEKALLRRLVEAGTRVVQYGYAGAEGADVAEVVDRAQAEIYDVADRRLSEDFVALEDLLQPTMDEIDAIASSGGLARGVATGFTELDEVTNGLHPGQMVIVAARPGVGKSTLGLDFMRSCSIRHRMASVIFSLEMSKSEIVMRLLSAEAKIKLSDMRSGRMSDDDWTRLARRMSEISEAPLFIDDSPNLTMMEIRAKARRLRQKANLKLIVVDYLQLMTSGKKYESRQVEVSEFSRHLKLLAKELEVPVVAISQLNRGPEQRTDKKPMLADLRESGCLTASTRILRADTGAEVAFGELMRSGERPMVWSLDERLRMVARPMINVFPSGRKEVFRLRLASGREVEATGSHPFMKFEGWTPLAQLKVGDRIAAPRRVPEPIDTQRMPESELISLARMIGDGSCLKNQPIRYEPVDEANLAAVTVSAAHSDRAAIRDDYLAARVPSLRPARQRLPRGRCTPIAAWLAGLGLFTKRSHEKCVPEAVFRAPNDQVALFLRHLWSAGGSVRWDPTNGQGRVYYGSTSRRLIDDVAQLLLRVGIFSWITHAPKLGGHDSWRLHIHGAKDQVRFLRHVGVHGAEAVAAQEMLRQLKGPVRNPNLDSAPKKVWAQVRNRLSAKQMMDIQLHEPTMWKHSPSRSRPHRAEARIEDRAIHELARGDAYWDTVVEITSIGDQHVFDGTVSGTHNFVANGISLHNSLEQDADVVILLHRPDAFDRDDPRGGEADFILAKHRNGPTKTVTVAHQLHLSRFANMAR
Nature of the series: DnaB intein splicing inhibitors, dose response, biochemical, cell-free fluorescence (AID 449749). Format: functional.

Active and inactive are the calls of the source.

Cytochrome P450 2C9, sequence (P11712 whole entry): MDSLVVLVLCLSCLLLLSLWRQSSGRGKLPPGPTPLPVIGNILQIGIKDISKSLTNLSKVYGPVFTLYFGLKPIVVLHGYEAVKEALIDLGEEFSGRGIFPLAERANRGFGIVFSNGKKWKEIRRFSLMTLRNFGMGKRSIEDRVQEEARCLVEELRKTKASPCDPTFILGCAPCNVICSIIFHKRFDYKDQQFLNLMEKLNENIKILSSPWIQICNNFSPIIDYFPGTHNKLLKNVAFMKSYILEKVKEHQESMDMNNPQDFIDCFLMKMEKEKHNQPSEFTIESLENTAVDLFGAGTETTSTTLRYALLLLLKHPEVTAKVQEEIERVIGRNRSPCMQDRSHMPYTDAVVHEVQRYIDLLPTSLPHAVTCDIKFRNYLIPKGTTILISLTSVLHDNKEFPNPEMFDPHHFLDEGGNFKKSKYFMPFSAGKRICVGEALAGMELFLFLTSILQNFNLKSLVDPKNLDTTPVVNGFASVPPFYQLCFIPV
Cytochrome P450 2D6, sequence (P10635 whole entry): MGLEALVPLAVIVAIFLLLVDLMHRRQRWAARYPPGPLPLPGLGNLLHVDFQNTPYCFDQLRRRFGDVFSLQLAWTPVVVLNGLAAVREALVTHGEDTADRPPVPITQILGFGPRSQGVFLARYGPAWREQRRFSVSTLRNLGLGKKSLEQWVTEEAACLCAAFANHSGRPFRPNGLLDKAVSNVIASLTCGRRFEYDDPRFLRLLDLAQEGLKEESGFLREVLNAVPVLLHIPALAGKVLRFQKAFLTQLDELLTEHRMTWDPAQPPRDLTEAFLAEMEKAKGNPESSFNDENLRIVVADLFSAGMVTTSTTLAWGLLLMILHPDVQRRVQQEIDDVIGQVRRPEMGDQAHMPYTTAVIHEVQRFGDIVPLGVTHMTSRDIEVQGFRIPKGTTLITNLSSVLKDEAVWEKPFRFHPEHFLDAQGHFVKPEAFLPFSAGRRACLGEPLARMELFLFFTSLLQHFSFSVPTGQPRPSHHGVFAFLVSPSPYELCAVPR

Turning to `Nc1c2c(nc3sc4c(c13)CCCCC4)CCCC2`, the IC50 in series [1] is 10.3 µM (active); in [2], 33.7 µM (active); on Caspase-3, 18.4 µM (active); in series [3], 32.8 µM (active). The CC50 in series [4] was 18 µM (active).
With `COC(=O)Cn1c2ccc(OC)cc2c2nc3ccccc3nc21`, the EC50 in series [5] and in [6] was > 99 µM (inactive) throughout.
For the compound `Cc1ccc2c(Cl)c(C(=O)N/N=C/c3cccn3C)sc2c1`, the EC50 in series [5] and in series [6] was > 99 µM (inactive) each time.
Consider `Cc1cccc(-c2noc(C3CCCCC3)n2)c1`, for which the IC50 is 11.3 µM (active) in series [1], 40.1 µM (active) in [2], 32 µM (active) on Caspase-3 and > 100 µM (inactive) in series [3].
In the case of `CCCCN1CC(=O)N2[C@H]3c4cc(C)ccc4OC[C@@H]3[C@H](c3ccccc3)[C@]2(C)C1=O`, the figures for the EC50 in [5] and in [6] were 24 µM (inactive) and > 99 µM (inactive), respectively.
Regarding `CCC(CC)C(=O)NCc1ccc2c(c1)cc(C)n2C`, the figures for the AC50 (on Cytochrome P450 2D6; on Cytochrome P450 2C9; in series [7]) were 31.6 µM (inconclusive), “inconclusive” and > 380 µM (inactive), respectively. The EC50 on Protein RecA was > 380 µM (inactive).
Take `CCCNC(=O)Cn1c(=O)/c(=C/c2ccc(-c3cccc([N+](=O)[O-])c3)o2)s/c1=C\C(=O)C(C)(C)C`: the EC50 in series [5] and in series [6] was > 99 µM (inactive) each time.

Usually IC50 stands for the midpoint of a concentration-inhibition curve. As a reminder, the EC50 is the concentration giving half of the maximal effect. One may read the AC50 as the concentration giving half of the maximal activity seen.
